Measurements reported in PMC4274986 (Journal of Molecular Recognition, 2014).

Tested on: Streptavidin-R-phycoerythrin (SAPE)
Assay type: binding

FTSSPSKHPQVEAGV [R441]
SAPE binding median fluorescence vs unlabeled controls: comparable to the unlabeled controls
